The test relates to T1, 1N4R p-tau.
T1 construct: made in house; host or cells: E. coli (PIMAX system)
Briefly: p-tau aggregation modulator screen of 1280-compound library (ThS fluorescence net change over 16 h).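 For ThS net change: 30 µM compound with 6 µM p-tau over 16 h.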 The format is biochemical. On the set-up: key to PTAI>2SD: *: PTAI>2SD; key to PTAI>3SD: *: PTAI>3SD.

Where [1] appears, read: library screen, ThS fluorescence net change over 16 h with p-tau.
Where [2] appears, read: p-tau aggregation modulator screen of 1280-compound library, ThS fluorescence net change.
Setting [3] is: 1280-compound library screen, ThS fluorescence net change over 16 h.
[4] abbreviates: p-tau aggregation modulator screen of the compound library, ThS fluorescence net change.
Where [5] appears, read: 1280-compound library screen, […].
[6] abbreviates: p-tau aggregation modulator screen of 1280-compound library, […].

Each structure is given as a SMILES string. Where a name gives a salt, the structure may show the parent alone. Read-outs that look alike come from different tables or passages of the source.

In turn, `O=c1cc(-c2ccc(O)c(O)c2)oc2cc(O)cc(O)c12` [Luteolin] registered a ThS net change under setting [1] of 296.

The molecule `Cc1onc(-c2c(Cl)cccc2Cl)c1C(=O)N[C@@H]1C(=O)N2[C@@H]1SC(C)(C)[C@@H]2C(=O)[O-].O.[Na+]` [Dicloxacillin sodium salt hydrate] displayed a ThS net change of 415.

In turn, `O=C(O)c1cc(=O)c2c(OCC(O)COc3cccc4oc(C(=O)O)cc(=O)c34)cccc2o1` [Cromolyn disodium salt] returned a ThS net change under setting [2] of 360.

In the case of `CC(O)(CS(=O)(=O)c1ccc(F)cc1)C(=O)Nc1ccc(C#N)c(C(F)(F)F)c1` (centres unmarked) [Bicalutamide], the ThS net change under setting [3] turned out to be 388.

`C[N+]12CCC(CC1)C(OC(=O)C(O)(c1ccccc1)c1ccccc1)C2` (centres unmarked) [Clidinium bromide]: the ThS net change under setting [3] is recorded as 389.

Under setting [4], `CC(C)(C)NC[C@H](O)c1ccc(O)c(CO)c1` [Levalbuterol hydrochloride] gave a ThS net change of 422.

Take `COc1cc(C(=O)OCCCN2CCCN(CCCOC(=O)c3cc(OC)c(OC)c(OC)c3)CC2)cc(OC)c1OC.Cl.Cl` [Dilazep dihydrochloride]: the ThS net change under setting [1] is on record as 286.

For the molecule `NC(=NCc1ccccc1)NC(=O)c1nc(Cl)c(N)nc1N` [Benzamil hydrochloride], the ThS net change under setting [5] is reported as 379.

On to `Nc1nc(/C(=C/CC(=O)O)C(=O)N[C@@H]2C(=O)N3C(C(=O)O)=CCS[C@H]23)cs1` [Ceftibuten], for which the ThS net change under setting [4] was determined as 441.

On to `Oc1ncnc2[nH]ncc12` [Allopurinol], for which the ThS net change under setting [3] is 396.

`CC(=O)OC1CN2CCC1CC2` (centres unmarked) [Aceclidine Hydrochloride] registered a ThS net change under setting [5] of 409.

Under setting [3], `C[C@]12CC[C@@H]3c4ccc(O)cc4CC[C@H]3[C@@H]1CC[C@@H]2O` [Estradiol-17 beta] showed a ThS net change of 384.

In turn, `Cc1c(N(C)C)c(=O)n(-c2ccccc2)n1C` [Amidopyrine] came in with a ThS net change under setting [2] of 368.

As for `Nc1ccc(S(=O)(=O)Nc2ncccn2)cc1` [Sulfadiazine], the ThS net change under setting [3] was 379.

Under setting [4], `O=C1[C@H](CC[C@H](O)c2ccc(F)cc2)[C@@H](c2ccc(O)cc2)N1c1ccc(F)cc1` [Ezetimibe] returned a ThS net change of 466.

Under setting [5], `CC(C)C[C@H](CN)CC(=O)O` [Pregabalin] came in with a ThS net change of 400.

Molecule `NS(=O)(=O)c1cc(C2(O)NC(=O)c3ccccc32)ccc1Cl` (centres unmarked) [Chlorthalidone] gave a ThS net change under setting [3] of 382.

Take `CC[C@@H](CO)NC(=O)[C@@H]1C=C2c3cccc4[nH]cc(c34)C[C@H]2N(C)C1` [Methylergometrine maleate]: the ThS net change under setting [5] is on record as 393.

On to `NS(=O)(=O)c1cc(C(=O)O)cc(N2CCCC2)c1Oc1ccccc1` [Piretanide], for which, under setting [4], the ThS net change is 435.

For `Cc1onc(-c2ccccc2)c1C(=O)N[C@@H]1C(=O)N2[C@@H]1SC(C)(C)[C@@H]2C(=O)[O-].[Na+]` [Oxacillin sodium], under setting [2], the ThS net change came to 373.

As for `Cc1cccc(C)c1NC(=O)C(C)N` (centres unmarked) [Tocainide hydrochloride], the ThS net change under setting [3] turned out to be 412.

Turning to `O=C1NCCN1c1ncc([N+](=O)[O-])s1` [Niridazole], under setting [3], the ThS net change is given as 399.

`Cn1c(=O)c2c(ncn2CC(=O)O)n(C)c1=O` [Acefylline]: the ThS net change under setting [4] is on record as 416.

Turning to `Nc1ncnc2c1ncn2[C@@H]1O[C@H](COP(=O)(O)O)[C@@H](O)[C@H]1O.O` [Adenosine 5'-monophosphate monohydrate], the ThS net change under setting [6] amounted to 369.

`CC(=O)[C@@]1(O)CC[C@H]2[C@@H]3C[C@H](C)C4=CC(=O)C=C[C@]4(C)[C@@]3(F)[C@@H](O)C[C@@]21C` [Fluorometholone]: under setting [3], the ThS net change was 383.

Turning to `C#C[C@]1(O)CC[C@H]2[C@@H]3CCC4=CC(=O)CC[C@@H]4[C@H]3CC[C@@]21C` [Norethindrone], under setting [2], the ThS net change amounted to 356.

The molecule `O=C([O-])[C@H]1/C(=C/CO)O[C@@H]2CC(=O)N21.[K+]` [Clavulanate potassium salt] returned a ThS net change of 431.

Consider `NC(CO)C(=O)NNCc1ccc(O)c(O)c1O` (centres unmarked) [Benserazide hydrochloride], for which the ThS net change under setting [2] was found to be 372.

`O.O=P(O)(O)C(O)(Cc1cccnc1)P(=O)(O)O` [Risedronic acid monohydrate] showed a ThS net change of 455.

Regarding `Clc1ccc(CCC(Cn2ccnc2)Sc2c(Cl)cccc2Cl)cc1` (centres unmarked) [Butoconazole nitrate], the ThS net change is 237.

Under setting [5], `C[C@]12CC[C@@H]3c4ccc(OC(=O)N(CCCl)CCCl)cc4CC[C@H]3[C@@H]1CC[C@@H]2O` [Estramustine] had a ThS net change of 407.

On to `Nc1c2c(nc3ccccc13)CCCC2` [Tacrine hydrochloride], for which the ThS net change under setting [3] is 405.

As to `O=C1c2c(O)cccc2Cc2cccc(O)c21` [Anthralin], for the setting “flag: p-tau aggregation inhibitor, ThS net change more than 3 SD from mean”, the “PTAI>3SD” value was “*”. Besides, the ThS net change under setting [1] is on record as 85.

`CNC(=C[N+](=O)[O-])NCCSCc1ccc(CN(C)C)o1` [Ranitidine hydrochloride] displayed a ThS net change under setting [3] of 405.

`CC(C(=O)O)c1ccc(C(=O)c2ccccc2)s1` (centres unmarked) [Tiaprofenic acid]: the ThS net change under setting [3] amounted to 381.

Molecule `C[C@@H]1CC[C@H]2[C@@H](C)C(=O)O[C@@H]3O[C@@]4(C)CC[C@@H]1[C@]32OO4` [Artemisinin] showed a ThS net change under setting [2] of 356.

As to `CN1CCN2c3ccccc3Cc3ccccc3C2C1.Cl` (centres unmarked) [Mianserine hydrochloride], the ThS net change under setting [2] came to 366.

With `CC(C)NCC(O)COc1ccc(CC(N)=O)cc1` (stereo in doubt) [(R)-(+)-Atenolol], the ThS net change under setting [3] was 395.

`CC(=O)NC[C@H]1CN(c2ccc(N3CCOCC3)c(F)c2)C(=O)O1` [Linezolid] returned a ThS net change under setting [3] of 405.

As for `CC1CS(=O)(=O)CCN1/N=C/c1ccc([N+](=O)[O-])o1` (centres unmarked) [Nifurtimox], under setting [4], the ThS net change was found to be 588.

On to `Cc1cc(NC(=O)C2=C(O)c3ccccc3S(=O)(=O)N2C)no1` [Isoxicam], for which the ThS net change under setting [2] is 364.

With `CN(C)c1nc(N(C)C)nc(N(C)C)n1` [Altretamine], the ThS net change under setting [4] was 414.

Under setting [4], `CN(C)CCOC(c1ccc(Cl)cc1)c1ccccn1.O=C(O)/C=C\C(=O)O` (centres unmarked) [Carbinoxamine maleate salt] registered a ThS net change of 427.

In the case of `CCC1=C(C)CN(C(=O)NCCc2ccc(S(=O)(=O)NC(=O)N[C@H]3CC[C@H](C)CC3)cc2)C1=O` [Glimepiride], the ThS net change under setting [4] came to 415.

`CCc1c2c(nc3ccc(OC(=O)N4CCC(N5CCCCC5)CC4)cc13)-c1cc3c(c(=O)n1C2)COC(=O)[C@]3(O)CC.Cl.O.O.O` [Irinotecan hydrochloride trihydrate] yielded a ThS net change of 281.

Take `O=C(CCCN1CCC2(CC1)C(=O)NCN2c1ccccc1)c1ccc(F)cc1` [Spiperone]: the ThS net change under setting [1] is on record as 313.

For `C[C@H](CCC(=O)O)[C@H]1CC[C@H]2[C@@H]3CC[C@@H]4C[C@H](O)CC[C@]4(C)[C@H]3CC[C@]12C` [Lithocholic acid], under setting [4], the ThS net change is listed as 566.

For `CCN(CC)CCOC(=O)C(Cc1cccc2ccccc12)CC1CCCO1` (centres unmarked) [Nafronyl oxalate], the ThS net change under setting [1] worked out at 324.

Regarding `N[C@@H](C(=O)N[C@@H]1C(=O)N2C(C(=O)O)=C(Cl)CS[C@H]12)c1ccccc1.O` [Cefaclor hydrate], the ThS net change under setting [5] amounted to 392.

With `Cl.O=C1OC(CN2CCOCC2)CN1/N=C/c1ccc([N+](=O)[O-])o1` (centres unmarked) [Furaltadone hydrochloride], the ThS net change under setting [3] was 385.

Take `CN(C)c1ccc(O)c2c1C[C@H]1C[C@H]3[C@H](N(C)C)C(O)=C(C(N)=O)C(=O)[C@@]3(O)C(O)=C1C2=O` [Minocycline hydrochloride]: the “PTAI>2SD” value (flag: p-tau aggregation inhibitor, ThS net change more than 2 SD from mean) is on record as “*”. The ThS net change under setting [1] was found to be 121.

Molecule `Cc1nc2ccc(CN(C)c3ccc(C(=O)N[C@@H](CCC(=O)O)C(=O)O)s3)cc2c(=O)[nH]1` [Raltitrexed] registered a ThS net change under setting [4] of 443.

For `Cc1ccc(/C(=C\CN2CCCC2)c2ccccn2)cc1.Cl` [Triprolidine hydrochloride], under setting [2], the ThS net change came out at 360.

The molecule `CC(=O)O[C@H]1C[C@H](O[C@H]2[C@@H](O)C[C@H](O[C@H]3[C@@H](O)C[C@H](O[C@H]4CC[C@@]5(C)[C@H](CC[C@@H]6[C@@H]5C[C@@H](O)[C@]5(C)[C@@H](C7=CC(=O)OC7)CC[C@]65O)C4)O[C@@H]3C)O[C@@H]2C)O[C@H](C)[C@H]1O[C@@H]1O[C@H](CO)[C@@H](O)[C@H](O)[C@H]1O` [Lanatoside C] came in with a ThS net change under setting [5] of 411.

Molecule `Nc1ccc(S(=O)(=O)Nc2ccnn2-c2ccccc2)cc1` [Sulfaphenazole] gave a ThS net change under setting [2] of 334.

Turning to `CC(=O)Nc1c(I)c(C(=O)N[C@H]2C(O)O[C@H](CO)[C@@H](O)[C@@H]2O)c(I)c(N(C)C(C)=O)c1I` (some centres unmarked) [Metrizamide], the ThS net change under setting [3] is given as 400.

Consider `CC(C)(Oc1ccc(CCNC(=O)c2ccc(Cl)cc2)cc1)C(=O)O` [Bezafibrate], for which, under setting [3], the ThS net change came to 389.

On to `CCCC(C(=O)OCCN(CC)CC)(c1ccccc1)c1ccccc1` [Proadifen hydrochloride], for which, under setting [3], the ThS net change is listed as 390.

Under setting [4], `COc1cc2c(cc1OC)C(=O)C(CC1CCN(Cc3ccccc3)CC1)C2` (centres unmarked) [Donepezil hydrochloride] came in with a ThS net change of 435.

As to `C=C1/C(=C\C=C2/CCC[C@]3(C)[C@@H]([C@H](C)/C=C/[C@@H](O)C4CC4)CC[C@@H]23)C[C@@H](O)C[C@@H]1O` [Calcipotriene], under setting [3], the ThS net change is reported as 407.

`CCCCC[C@H](O)/C=C/[C@H]1[C@H](O)CC(=O)[C@@H]1CCCCCCC(=O)O` [Alprostadil] gave a ThS net change under setting [4] of 445.

The molecule `CC(C(O)c1ccc(O)cc1)N1CCC(Cc2ccccc2)CC1.O=C(O)C(O)C(O)C(=O)O` (centres unmarked) [Ifenprodil tartrate] returned a ThS net change under setting [2] of 361.

For the molecule `Cc1cc2c(s1)Nc1ccccc1N=C2N1CCN(C)CC1` [Olanzapine], the ThS net change under setting [6] came out at 345.

For the origin of these results see PMC7539012, “Hyperphosphorylated tau aggregation and cytotoxicity modulators screen identified prescription drugs linked to Alzheimer's disease and cognitive functions” (Scientific Reports, 2020).
